# Results reported in article PMC4619380, “Nicotinic Activity of Arecoline, the Psychoactive Element of "Betel Nuts", Suggests a Basis for Habitual Use and Anti-Inflammatory Activity” (PLoS ONE, 2015).
# Entries after “also recorded” stand apart in the source; their conditions may differ. Where two headings read alike, the source gives them in different places. Marks after values point to notes of the source that are not given here.
# Assays:
# human α7 nAChR = target: T1, human α7 nAChR (Homo sapiens, UniProt P36544); assay: Two-electrode voltage clamp of Xenopus oocytes expressing α7 nAChR (co-injected with RIC-3); type: cell-based; settings: for activation of α7 in the presence of PNU-120596: co-applied with 10 μM PNU-120596; for activation of α7 when applied alone (absence of PAM): no PNU-120596, compared to 60 μM ACh controls; for EC50: normalized to 60 μM ACh controls
# T1 construct: host or cells: Xenopus laevis oocytes injected with cRNA
# T1 sequence (P36544 23-502): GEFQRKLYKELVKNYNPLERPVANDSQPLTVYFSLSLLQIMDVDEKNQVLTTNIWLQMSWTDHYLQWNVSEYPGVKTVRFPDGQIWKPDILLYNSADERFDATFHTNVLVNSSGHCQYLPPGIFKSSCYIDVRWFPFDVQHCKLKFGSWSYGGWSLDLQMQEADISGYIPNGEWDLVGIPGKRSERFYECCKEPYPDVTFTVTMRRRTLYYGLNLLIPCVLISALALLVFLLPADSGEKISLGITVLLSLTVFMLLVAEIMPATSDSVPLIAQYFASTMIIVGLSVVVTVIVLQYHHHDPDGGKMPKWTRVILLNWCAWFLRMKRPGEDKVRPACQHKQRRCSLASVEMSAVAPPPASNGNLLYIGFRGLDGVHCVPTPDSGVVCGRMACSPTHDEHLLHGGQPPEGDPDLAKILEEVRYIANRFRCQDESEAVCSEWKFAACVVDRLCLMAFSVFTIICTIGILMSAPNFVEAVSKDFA
# Procedure: (§1) Human nAChR clones and concatamers were obtained from Dr. J. Lindstrom (University of Pennsylvania, Philadelphia, PA). The human resistance-to-cholinesterase 3 (RIC-3) clone, obtained from Dr. M. Treinin (Hebrew University, Jerusalem, Israel), was co-injected with α7 to improve the level and speed of α7 receptor expression without affecting the pharmacological properties of the receptors. Subsequent to linearization and purification of the plasmid cDNAs, cRNAs were prepared using the mMessage mMachine in vitro RNA transfection kit (Ambion, Austin, TX).
# Oocytes were surgically removed from mature Xenopus laevis frogs (Nasco, Ft. Atkinson, WI) and injected with appropriate nAChR subunit cRNAs as described previously. Frogs were maintained in the Animal Care Service facility of the University of Florida, and all procedures were approved by the University of Florida Institutional Animal Care and Use Committee. In brief, the frog was first anesthetized for 15–20 min in 1.5 L frog tank water containing 1 g of 3-aminobenzoate methanesulfonate buffered with sodium bicarbonate. The harvested oocytes were treated with 1.25 mg/ml collagenase (Worthington Biochemicals, Freehold, NJ) for 2 h at room temperature in calcium-free Barth’s solution (88 mM NaCl, 1 mM KCl, 2.38 mM NaHCO3, 0.82 mM MgSO4, 15 mM HEPES, and 12 mg/l tetracycline, pH 7.6) to remove the follicular layer. Stage V oocytes were subsequently isolated and injected with 50 nl of 5–20 ng nAChR subunit cRNA. Recordings were carried out 1–7 days after injection.
# Experiments were conducted using OpusXpress 6000A (Molecular Devices, Union City, CA). Both the voltage and current electrodes were filled with 3 M KCl. Oocytes were voltage-clamped at -60 mV. The oocytes were bath-perfused with Ringer’s solution (115 mM NaCl, 2.5 mM KCl, 1.8 mM CaCl2, 10 mM HEPES, and 1 μM atropine, pH 7.2) at 2 ml/min for α7 receptors and at 4 ml/min for other subtypes. To evaluate the effects of experimental compounds compared to ACh-evoked responses of various nAChR subtypes expressed in oocytes, baseline conditions were defined by two initial applications of ACh made before test applications. The solutions were applied from a 96-well plate via disposable tips, and the test compounds were applied alone, co-applied with ACh, or co-applied with PNU-120596. For the concentration-response study, drug applications alternated between ACh controls and experimental compounds. Unless otherwise indicated, drug applications were 12 s in duration followed by a 181 s washout period for α7 receptors and 6 s with a 241 s washout for other subtypes. A typical recording for each oocyte constituted two initial control applications of ACh, an experimental compound application, and then a follow-up control application of ACh to determine the desensitization or rundown of the receptors. The control ACh concentrations were 60 μM for α7, 100 μM for α3β4, and 30 μM for α4β2. The responses of α4β2 and α3β4-expressing cells were measured as peak current amplitudes, and the α7 data were calculated as net charge, as previously described.
# (§2) Data were collected at 50 Hz, filtered at 20 Hz, analyzed by Clampfit 9.2 (Molecular Devices) and Excel 2003 (Microsoft, Redmond, WA), and normalized to the averaged peak current or net-charge response of the two initial ACh controls for each oocyte. Data were expressed as means ± SEM from at least four oocytes for each experiment and plotted by Kaleidagraph 3.0.2 (Abelbeck Software, Reading, PA). Multi-cell averages were calculated for comparisons of complex responses. To permit better comparisons between experiments each single cell response was normalized to the average of the two initial controls obtained from that cell. Averages of the normalized data were calculated for each of the 10,500 points in each of the 210 s traces (acquired at 50 Hz), as well as the standard errors for those averages.
# [1] = target: T2, α6β2β3α4β2 concatamer nAChR (Homo sapiens, UniProt P17787+P43681+Q15825); assay: Two-electrode voltage clamp of Xenopus oocytes expressing the α6-containing concatamer; type: cell-based
# T2 sequence (Q15825 26-494): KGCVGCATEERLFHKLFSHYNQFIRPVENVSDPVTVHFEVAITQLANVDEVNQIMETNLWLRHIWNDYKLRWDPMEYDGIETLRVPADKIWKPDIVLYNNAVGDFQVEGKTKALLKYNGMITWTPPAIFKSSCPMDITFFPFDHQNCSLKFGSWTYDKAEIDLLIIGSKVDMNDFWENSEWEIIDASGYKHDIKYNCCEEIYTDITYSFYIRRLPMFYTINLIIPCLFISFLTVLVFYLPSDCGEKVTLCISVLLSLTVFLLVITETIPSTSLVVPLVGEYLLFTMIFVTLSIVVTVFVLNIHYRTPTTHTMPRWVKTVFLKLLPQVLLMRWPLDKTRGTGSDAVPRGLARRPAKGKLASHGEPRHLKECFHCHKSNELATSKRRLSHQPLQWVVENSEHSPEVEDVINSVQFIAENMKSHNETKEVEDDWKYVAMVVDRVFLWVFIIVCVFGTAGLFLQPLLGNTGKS
# T2 sequence (P17787 26-502): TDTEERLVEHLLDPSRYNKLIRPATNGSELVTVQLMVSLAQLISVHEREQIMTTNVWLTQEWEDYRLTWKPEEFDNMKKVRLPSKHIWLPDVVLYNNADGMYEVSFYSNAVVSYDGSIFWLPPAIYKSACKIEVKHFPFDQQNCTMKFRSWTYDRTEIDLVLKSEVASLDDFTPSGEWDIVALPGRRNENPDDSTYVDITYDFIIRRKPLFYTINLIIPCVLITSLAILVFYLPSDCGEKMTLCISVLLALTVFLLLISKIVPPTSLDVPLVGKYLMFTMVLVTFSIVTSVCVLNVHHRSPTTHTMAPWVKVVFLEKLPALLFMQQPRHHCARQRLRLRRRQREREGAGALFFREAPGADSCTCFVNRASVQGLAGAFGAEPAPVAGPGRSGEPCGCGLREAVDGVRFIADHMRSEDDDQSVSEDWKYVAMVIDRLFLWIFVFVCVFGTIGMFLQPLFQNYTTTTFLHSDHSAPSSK
# T2 sequence (P43681 27-627): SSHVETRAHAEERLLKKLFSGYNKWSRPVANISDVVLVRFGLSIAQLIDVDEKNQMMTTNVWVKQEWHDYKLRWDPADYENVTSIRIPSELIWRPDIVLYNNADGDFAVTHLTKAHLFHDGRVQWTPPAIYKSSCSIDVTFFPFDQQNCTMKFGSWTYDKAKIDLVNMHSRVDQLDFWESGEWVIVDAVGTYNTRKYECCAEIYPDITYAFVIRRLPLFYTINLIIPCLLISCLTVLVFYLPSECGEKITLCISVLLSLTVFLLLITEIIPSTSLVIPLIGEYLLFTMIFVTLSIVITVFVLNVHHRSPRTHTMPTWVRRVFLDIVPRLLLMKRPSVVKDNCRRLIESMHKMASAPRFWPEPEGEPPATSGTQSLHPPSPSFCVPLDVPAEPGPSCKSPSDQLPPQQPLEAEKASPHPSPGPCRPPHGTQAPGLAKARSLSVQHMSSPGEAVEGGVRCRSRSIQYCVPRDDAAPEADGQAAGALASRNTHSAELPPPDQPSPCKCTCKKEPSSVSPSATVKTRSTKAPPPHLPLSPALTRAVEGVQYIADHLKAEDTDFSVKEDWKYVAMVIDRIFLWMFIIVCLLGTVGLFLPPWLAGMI
# T2 sequence (Q05901 22-458 partner): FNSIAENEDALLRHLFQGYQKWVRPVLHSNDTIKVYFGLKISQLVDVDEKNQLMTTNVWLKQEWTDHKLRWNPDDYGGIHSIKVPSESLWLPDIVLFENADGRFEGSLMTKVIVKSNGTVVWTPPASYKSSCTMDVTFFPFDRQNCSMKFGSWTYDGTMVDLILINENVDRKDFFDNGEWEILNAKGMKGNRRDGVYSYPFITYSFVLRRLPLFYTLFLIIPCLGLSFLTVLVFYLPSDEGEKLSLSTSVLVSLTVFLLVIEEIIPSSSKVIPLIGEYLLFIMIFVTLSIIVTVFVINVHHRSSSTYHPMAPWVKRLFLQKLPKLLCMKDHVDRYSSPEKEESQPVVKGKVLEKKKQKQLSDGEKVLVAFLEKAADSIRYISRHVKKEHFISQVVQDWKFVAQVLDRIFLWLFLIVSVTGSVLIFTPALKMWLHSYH
# Procedure: as §1
# (§3) Oocytes were surgically removed from mature Xenopus laevis frogs (Nasco, Ft. Atkinson, WI) and injected with appropriate nAChR subunit cRNAs as described previously. Frogs were maintained in the Animal Care Service facility of the University of Florida, and all procedures were approved by the University of Florida Institutional Animal Care and Use Committee. In brief, the frog was first anesthetized for 15–20 min in 1.5 L frog tank water containing 1 g of 3-aminobenzoate methanesulfonate buffered with sodium bicarbonate. […]
# (§4) Experiments were conducted using OpusXpress 6000A (Molecular Devices, Union City, CA). […] The responses of α4β2 and α3β4-expressing cells were measured as peak current amplitudes, and the α7 data were calculated as net charge, as previously described.
# as §2, with “To permit better comparisons between experiments each single cell response was normalized to the average of the two initial controls obtained from that cell.” left out
# [2] = system: α4β2 nAChR (mixed populations formed from monomers); assay: Two-electrode voltage clamp of Xenopus oocytes expressing α4β2 nAChR formed from monomers; type: cell-based, human; settings: 100 μM arecoline; α4 and β2 monomers
# Procedure: as §1, with “TX). […]” for “TX).”
# as §4
# (§5) Data were collected at 50 Hz, filtered at 20 Hz, analyzed by Clampfit 9.2 (Molecular Devices) and Excel 2003 (Microsoft, Redmond, WA), and normalized to the averaged peak current or net-charge response of the two initial ACh controls for each oocyte. Data were expressed as means ± SEM from at least four oocytes for each experiment and plotted by Kaleidagraph 3.0.2 (Abelbeck Software, Reading, PA). Multi-cell averages were calculated for comparisons of complex responses. […]
# HS α4(2)β2(3) nAChR [3] = target: T3, HS α4(2)β2(3) nAChR (Homo sapiens, UniProt P17787+P43681); assay: Two-electrode voltage clamp of Xenopus oocytes expressing high sensitivity α4β2 nAChR (β2-α4 concatamer plus β2 monomer); type: cell-based
# T3 construct: host or cells: Xenopus laevis oocytes injected with cRNA
# T3 sequence (P17787+P43681 fused): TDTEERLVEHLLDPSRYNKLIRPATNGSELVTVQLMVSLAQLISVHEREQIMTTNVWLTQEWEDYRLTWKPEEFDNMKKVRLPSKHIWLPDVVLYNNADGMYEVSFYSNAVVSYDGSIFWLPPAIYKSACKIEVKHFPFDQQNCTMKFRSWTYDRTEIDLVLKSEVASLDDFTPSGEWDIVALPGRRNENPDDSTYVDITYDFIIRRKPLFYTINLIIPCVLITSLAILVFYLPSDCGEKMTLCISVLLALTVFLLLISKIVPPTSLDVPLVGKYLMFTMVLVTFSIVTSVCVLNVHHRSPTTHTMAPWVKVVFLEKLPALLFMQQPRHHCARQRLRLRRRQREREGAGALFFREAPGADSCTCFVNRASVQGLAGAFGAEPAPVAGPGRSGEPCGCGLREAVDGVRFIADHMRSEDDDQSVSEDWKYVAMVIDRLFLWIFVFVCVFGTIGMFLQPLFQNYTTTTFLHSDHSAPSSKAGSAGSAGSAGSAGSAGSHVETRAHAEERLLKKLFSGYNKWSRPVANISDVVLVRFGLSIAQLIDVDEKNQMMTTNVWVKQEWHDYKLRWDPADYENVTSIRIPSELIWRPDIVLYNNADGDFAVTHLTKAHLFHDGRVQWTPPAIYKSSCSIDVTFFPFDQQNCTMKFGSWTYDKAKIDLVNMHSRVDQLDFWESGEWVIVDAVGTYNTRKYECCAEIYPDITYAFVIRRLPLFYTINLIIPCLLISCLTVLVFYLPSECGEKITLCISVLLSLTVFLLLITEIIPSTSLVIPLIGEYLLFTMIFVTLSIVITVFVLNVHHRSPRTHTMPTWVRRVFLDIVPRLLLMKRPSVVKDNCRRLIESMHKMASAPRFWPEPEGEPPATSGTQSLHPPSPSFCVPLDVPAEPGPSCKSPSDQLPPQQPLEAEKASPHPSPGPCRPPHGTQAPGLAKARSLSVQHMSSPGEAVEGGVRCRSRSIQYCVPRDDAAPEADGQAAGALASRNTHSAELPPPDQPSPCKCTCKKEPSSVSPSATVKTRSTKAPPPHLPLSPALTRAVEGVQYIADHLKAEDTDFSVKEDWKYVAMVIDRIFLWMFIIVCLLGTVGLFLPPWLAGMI
# T3 sequence (P17787 26-502): as the sequence (P17787 26-502) above
# Procedure: as §1, §3, §4
# as §2, with “To permit better comparisons between experiments each single cell response was normalized to the average of the two initial controls obtained from that cell.” left out, “averages. […]” for “averages.”
# [4] = parameters: method as in PMID 20412403; settings: 90% of betel chewers, prior to chewing; cited from earlier work
# LS α4(3)β2(2) nAChR [5] = target: T4, LS α4(3)β2(2) nAChR (Homo sapiens, UniProt P17787+P43681); assay: Two-electrode voltage clamp of Xenopus oocytes expressing low sensitivity α4β2 nAChR (β2-α4 concatamer plus α4 monomer); type: cell-based
# T4 construct: host or cells: Xenopus laevis oocytes injected with cRNA
# T4 sequence (P17787+P43681 fused): as the sequence (P17787+P43681 fused) above
# T4 sequence (P43681 27-627): as the sequence (P43681 27-627) above
# Procedure: as §1, with “TX). […]” for “TX).”
# as §4, §5
# LS α4(3)β2(2) nAChR [6] = target: T4, LS α4(3)β2(2) nAChR; settings: cited from earlier work
# [7] = target: T2, α6β2β3α4β2 concatamer nAChR; parameters: method as in PMID 20923852; settings: cited from earlier work
# HS α4(2)β2(3) nAChR [8] = target: T3, HS α4(2)β2(3) nAChR; settings: cited from earlier work
# [9] = 100 μM arecoline co-applied with 10 μM PNU-120596, 60 μM ACh controls, n = 7
# [10] = co-applied with 30 μM PNU-120596, relative to 60 μM ACh controls
structure (smiles),measurement,setting,value
"C[N+](C)(C)CCOC(N)=O [carbachol, reference compound]",activation of α7 in the presence of PNU-120596,human α7 nAChR,stimulated α7 receptors under both conditions
same,activation of α7 when applied alone (absence of PAM),human α7 nAChR,stimulated α7 receptors under both conditions
"O=C1CCCN1CC#CCN1CCCC1 [oxotremorine, reference compound]",activation of α7 in the presence of PNU-120596,human α7 nAChR,relatively little additional activation
same,activation of α7 when applied alone (absence of PAM),human α7 nAChR,small but significant activation
COC(=O)C1=CCCN(C)C1 [arecoline],effect on subsequent ACh-evoked responses,human α7 nAChR; 60 μM ACh applied after the test application and wash,largely unaffected
same,response relative to ACh maximum,"human α7 nAChR; 100 μM arecoline applied alone, extrapolated from ACh controls and earlier ACh concentration-response studies",less than 1%
same,net charge of response relative to ACh controls,human α7 nAChR; [9],37 ± 10 times
same,peak amplitude of response relative to ACh controls,human α7 nAChR; [9],9.6 ± 3.4 times
same,EC50,"human α7 nAChR; co-applied with 30 μM PNU-120596, read-out: EC50, net charge",93 ± 2 µM
same,EC50,"human α7 nAChR; co-applied with 30 μM PNU-120596, read-out: EC50, peak currents",60 ± 7 µM
same,"Imax relative to ACh controls, net charge",human α7 nAChR; [10],49 ± 1
same,"Imax relative to ACh controls, peak currents",human α7 nAChR; [10],15 ± 1
same,activation of α7 when applied alone (absence of PAM),human α7 nAChR,did not produce significant activation
same,IC50,"human α7 nAChR; simple co-application with 60 μM ACh, no PAM, read-out: IC50 for inhibiting 60 μM ACh-evoked responses",> 1000 µM
same,response to arecoline (activation),[1]; 100 μM arecoline,small but significant activity; also recorded: substantially larger and well above the threshold of detection
same,EC50,"[1]; α6-containing receptor, responses relative to ACh maximum",21 ± 4 µM
same,Imax relative to ACh,[1]; α6β2β3α4β2,0.056 ± 0.003
same,response to arecoline (activation),[2],small but significant activity; also recorded: substantially larger and well above the threshold of detection
same,EC50,"HS α4(2)β2(3) nAChR [3]; HS α4β2, responses relative to ACh maximum",14 ± 3 µM
same,mecamylamine-sensitive steady-state activation relative to ACh maximum,"HS α4(2)β2(3) nAChR [3]; prolonged bath application of 3 μM arecoline, revealed with 100 μM mecamylamine, seven cells",~1%
same,Imax relative to ACh,HS α4(2)β2(3) nAChR [3]; α4(2)β2(3),0.054 ± 0.004
same,residual salivary level of arecoline,[4],at least 400 nM
same,EC50,"LS α4(3)β2(2) nAChR [5]; LS α4β2, responses relative to ACh maximum",75 ± 7 µM
same,Imax relative to ACh,LS α4(3)β2(2) nAChR [5]; α4(3)β2(2),0.036 ± 0.003
"CC(=O)OC(C)C[N+](C)(C)C (stereo not shown) [methacholine, reference compound]",activation of α7 in the presence of PNU-120596,human α7 nAChR,not as active as arecoline
same,activation of α7 when applied alone (absence of PAM),human α7 nAChR,silent agonist
c1cnc2cc3c(cc2n1)[C@@H]1CNC[C@H]3C1 [varenicline],Imax relative to ACh,LS α4(3)β2(2) nAChR [6],0.08 ^b
same,Imax relative to ACh,[7],0.18 ± 0.11 ^c
same,Imax relative to ACh,HS α4(2)β2(3) nAChR [8],0.13 ^b
"C[C@@H]1O[C@H](C[N+](C)(C)C)C[C@H]1O [muscarine, reference compound]",activation of α7 in the presence of PNU-120596,human α7 nAChR,failed to activate the receptors under either condition
same,activation of α7 when applied alone (absence of PAM),human α7 nAChR,failed to activate the receptors under either condition
O=c1cccc2n1C[C@@H]1CNC[C@H]2C1 [cytisine],Imax relative to ACh,LS α4(3)β2(2) nAChR [6],0.10 ± 0.02 ^a
same,Imax relative to ACh,[7],0.11 ± 0.03 ^c
same,Imax relative to ACh,HS α4(2)β2(3) nAChR [8],≤ 0.05 ^a
